Measurements taken from paper PMC8698456, “Agrobacterium fabrum atu0526-Encoding Protein Is the Only Chemoreceptor That Regulates Chemoattraction toward the Broad Antibacterial Agent Formic Acid” (Biology, 2021).

Columns and labels:
Atu0526 [1] = biological target: T1, Atu0526 (Agrobacterium fabrum, UniProt Q7D199, R115A); test: isothermal titration calorimetry (no significant Tm shift in thermo shift assay); format: binding
T1 construct: gene mclA; periplasmic domain (Atu0526 LBD R115A; LBD from 36th residue to 197th residue)

Atu0526 [2] = biological target: T2, Atu0526 (Agrobacterium fabrum, UniProt Q7D199); test: isothermal titration calorimetry; thermo shift assay (Tm […] to […] °C); format: binding
T2 construct: gene mclA; periplasmic domain (LBD, from 36th residue to 197th residue), His-tagged, pET30a
T2 sequence (Q7D199 entry or part of it): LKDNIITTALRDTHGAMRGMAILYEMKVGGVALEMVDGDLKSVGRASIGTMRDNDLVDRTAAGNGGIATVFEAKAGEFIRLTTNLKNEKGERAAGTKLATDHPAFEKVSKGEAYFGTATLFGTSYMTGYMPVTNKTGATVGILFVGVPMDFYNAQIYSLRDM

T1 sequence (Q7D199 entry or part of it R115A): as the sequence (Q7D199 entry or part of it) above

Compound: O=CO [formic acid]
- Kd (Atu0526 [1]): 22.9 ± 5.36 µM
- Kd (Atu0526 [2]): 172 ± 53.6 µM
